In ChEMBL document CHEMBL1201862, “PubChem BioAssay data set” (2004):
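Interpolation was linear, between the two tested concentrations surrounding the appropriate level; five concentrations were tested over 48 hours in 96-well plates. GI50: concentration for 50% inhibition of growth.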 Calls of active or inactive are those of the source. Rule as the data show it: active = GI50 up to about 1.1 µM and inactive = higher.

Experiments:
Test in all cases: NCI tumour cell line growth inhibition, 48 h
HCT-15 = test system: HCT-15
NCI-H226 = test system: NCI-H226
LOX IMVI = test system: LOX IMVI
SN12C = test system: SN12C
UACC-62 = test system: UACC-62
MDA-MB-435 = test system: MDA-MB-435
OVCAR-8 = test system: OVCAR-8
NCI-H23 = test system: NCI-H23
HOP-62 = test system: HOP-62
HCC 2998 = test system: HCC 2998
NCI/ADR-RES = test system: NCI/ADR-RES
SK-MEL-28 = test system: SK-MEL-28
HOP-92 = test system: HOP-92
EKVX = test system: EKVX
UO-31 = test system: UO-31
RXF 393 = test system: RXF 393
OVCAR-4 = test system: OVCAR-4
M14 = test system: M14
IGROV-1 = test system: IGROV-1
HL-60 = test system: HL-60

| Structure (SMILES) | GI50 (HCT-15) | GI50 (NCI-H226) | GI50 (LOX IMVI) | GI50 (SN12C) | GI50 (UACC-62) | GI50 (MDA-MB-435) | GI50 (OVCAR-8) | GI50 (NCI-H23) | GI50 (HOP-62) | GI50 (HCC 2998) | GI50 (NCI/ADR-RES) | GI50 (SK-MEL-28) | GI50 (HOP-92) | GI50 (EKVX) | GI50 (UO-31) | GI50 (RXF 393) | GI50 (OVCAR-4) | GI50 (M14) | GI50 (IGROV-1) | GI50 (HL-60) |
| --- | --- | --- | --- | --- | --- | --- | --- | --- | --- | --- | --- | --- | --- | --- | --- | --- | --- | --- | --- | --- |
| CNC(=S)N/N=C(\C(=N/NC(=S)NC)c1ccccn1)c1ccccn1 | 0.232 µM | 2 µM (inactive) | 4.82 µM (inactive) | 4.08 µM (inactive) | 4.59 µM (inactive) | 13.8 µM (inactive) | 0.687 µM (active) | 9.12 µM (inactive) | 7.78 µM (inactive) | > 23 µM (inactive) | < 0.02 µM (active) | 29 µM (inactive) | 15.2 µM (inactive) | 1.63 µM (inactive) | 2.48 µM (inactive) | 5.07 µM (inactive) | 10.9 µM (inactive) | 2.14 µM (inactive) | 0.759 µM (active) |  |
| COc1ccccc1NC(=O)CC(=O)N1N=C(C)C(/N=N/c2ccc(C(=O)O)cc2)C1=O (centres undefined) | > 100 µM |  | > 100 µM (inactive) | > 100 µM (inactive) | > 100 µM (inactive) | > 100 µM (inactive) | > 100 µM (inactive) | > 100 µM (inactive) | > 100 µM (inactive) | > 100 µM (inactive) | > 100 µM (inactive) | > 100 µM (inactive) | 28.2 µM (inactive) | 28.6 µM (inactive) | > 100 µM (inactive) | > 100 µM (inactive) | > 100 µM (inactive) | > 100 µM (inactive) | > 100 µM (inactive) | > 100 µM (inactive) |
| CO[C@@](c1ccccc1)(c1nc(C#N)c(N)o1)C(F)(F)F | 85.9 µM | > 100 µM (inactive) | > 100 µM (inactive) | > 100 µM (inactive) | 77.4 µM (inactive) | > 100 µM (inactive) | > 100 µM (inactive) | > 100 µM (inactive) | > 100 µM (inactive) | > 100 µM (inactive) | > 100 µM (inactive) | > 100 µM (inactive) | 44.7 µM (inactive) | > 100 µM (inactive) | 68.1 µM (inactive) | > 100 µM (inactive) | > 100 µM (inactive) | > 100 µM (inactive) | > 100 µM (inactive) |  |
| CC1C/C(=C\c2ccc(OC(=O)C(C)(C)C)cc2)C(=O)/C(=C/c2ccc(OC(=O)C(C)(C)C)cc2)C1 (centres undefined) | > 100 µM | 22.2 µM (inactive) | 35.6 µM (inactive) | 26.2 µM (inactive) | 95.5 µM (inactive) | 46.5 µM (inactive) | 36 µM (inactive) | 24 µM (inactive) | 41.2 µM (inactive) | > 100 µM (inactive) | > 100 µM (inactive) | > 100 µM (inactive) | > 100 µM (inactive) | > 100 µM (inactive) |  | 19.8 µM (inactive) | 31.4 µM (inactive) | > 100 µM (inactive) | 7.64 µM (inactive) | 23.5 µM (inactive) |
| O=C1C(Cl)=C(N2CCN(CCOCCO)CC2)C(=O)c2ncccc21 | > 10 µM | > 10 µM (inactive) | > 10 µM (inactive) | > 10 µM (inactive) | > 10 µM (inactive) | 2.65 µM (inactive) | > 10 µM (inactive) | > 10 µM (inactive) | > 10 µM (inactive) | > 10 µM (inactive) | > 10 µM (inactive) | > 10 µM (inactive) | 1.63 µM (inactive) | > 10 µM (inactive) |  | 3.69 µM (inactive) | > 10 µM (inactive) | > 10 µM (inactive) | > 10 µM (inactive) | 3.35 µM (inactive) |
| Cc1c(C)c2c(c(N)c1C#N)C(=O)N(O)C2=O | > 100 µM | > 100 µM (inactive) |  | > 100 µM (inactive) | > 100 µM (inactive) | > 100 µM (inactive) | > 100 µM (inactive) | > 100 µM (inactive) |  | > 100 µM (inactive) | > 100 µM (inactive) | > 100 µM (inactive) | > 100 µM (inactive) | > 100 µM (inactive) | > 100 µM (inactive) | > 100 µM (inactive) | > 100 µM (inactive) | > 100 µM (inactive) | > 100 µM (inactive) | > 100 µM (inactive) |
| CCOC(=O)C(C(=O)OCC)C(=O)c1ccccc1C(=O)c1ccccc1 | > 100 µM | > 100 µM (inactive) | > 100 µM (inactive) | > 100 µM (inactive) | > 100 µM (inactive) | > 100 µM (inactive) |  | > 100 µM (inactive) | > 100 µM (inactive) | > 100 µM (inactive) | > 100 µM (inactive) |  | > 100 µM (inactive) | 26.1 µM (inactive) | > 100 µM (inactive) | > 100 µM (inactive) | > 100 µM (inactive) | > 100 µM (inactive) | > 100 µM (inactive) | > 100 µM (inactive) |
| O=S(=O)(c1ccccc1)C(c1ccc2ccccc2n1)S(=O)(=O)c1ccccc1 | > 100 µM | > 100 µM (inactive) | > 100 µM (inactive) | > 100 µM (inactive) |  | > 10 µM (inactive) | > 100 µM (inactive) | > 100 µM (inactive) | 78 µM (inactive) | 48.5 µM (inactive) | > 100 µM (inactive) | > 100 µM (inactive) | > 100 µM (inactive) | > 100 µM (inactive) | > 100 µM (inactive) | > 100 µM (inactive) | 55.6 µM (inactive) |  | > 100 µM (inactive) | > 100 µM (inactive) |
